Test results taken from publication PMC7037612, “Ketone Bodies Promote Amyloid-β1–40 Clearance in a Human in Vitro Blood–Brain Barrier Model” (International Journal of Molecular Sciences, 2020).
One block for each molecule: values may come before it.

What was measured:
BLEC monolayer = BLEC monolayer integrity: endothelial permeability to Lucifer Yellow (PeLY); type: cell-based, human
Description: No significant pH variation was observed after KB treatment compared to the control. The integrity of the BLEC monolayer after 48 h of treatment with KBs was evaluated using the method described by Dehouck et al. (1992). Each coculture condition was performed in triplicate. The fluorescent integrity marker LY was used at a final concentration of 50 μM in RH buffer to obtain the endothelial permeability coefficient (Pe) from the apical-to-basolateral compartment. The fluorescence of LY in each compartment was measured using the excitation/emission wavelength (432/538 nm) using a microplate reader (Synergy H1). In this calculation method, both the filter without cell permeability (PSf = insert filter + matrigel coating) and filter plus cell permeability (PSt = insert filter + matrigel coating + ECs) were taken into account, according to the formula: 1/PSe = 1/[…] PS is the permeability x surface area product (in microliters per minute) obtained by dividing the volume cleared from the donor to the receiver compartment (in μL) for 1 h. […] balance (%) was calculated from the amount of compound recovered in the donor and receiver compartment at the end of the experiment divided by the total amount added in the donor compartment at time zero. To be taken into account for Pe determination, the mass balance should be between 80% and 120%.

MCT1 = assay: Western blot of MCT1 protein level in BLECs; type: cell-based, human; conditions: 48 h, 20 mM AcAc, 20 mM βHB or ratio (20 mM AcAc/20 mM βHB), Western blot normalized to β-actin, at least three independent experiments
[1] = test system: [3H]inulin transport across BLECs; assay: [3H]inulin transport across BLECs (non-specific transport marker); type: cell-based, human; conditions: 400 nM [3H]inulin, 30 min, 37 °C; for effect on basolateral-to-apical transport of [3H]inulin after ratio KB treatment: 48 h ratio treatment, 200 nM RAP basolateral or 0.5 µM elacridar apical
Description: Forty-eight hours after KB treatments, the apical-to-basolateral and the basolateral-to-apical transport of Aβ1-40 across BLECs was investigated as previously described (Briefly, for apical-to-basolateral studies, filters were transferred to new 12-well plates containing 1.5 mL of RH-HSA 0.1% (the receiver solution) per well. In the insert corresponding to the apical compartment, 0.5 mL of RH-HSA 0.1% supplemented with 10 nM Aβ1-40Cy5 peptide was added (the donor solution). For basolateral-to-apical studies, filters were transferred to 12-well plates containing 1.5 mL of RH-HSA 0.1% supplemented with 10 nM fluorescent Aβ1-40Cy5 (the donor solution). In the apical compartment, 0.5 mL of RH-HSA 0.1% (the receiver solution) was added. In parallel, the apical-to-basolateral and the basolateral-to-apical transport of 400 nM [^3H]inulin was performed in the same way as the Aβ1-40Cy5 peptide transport, thus representing a paracellular marker. The BBB integrity was checked by measuring the PeLY as described in Section 4.6. […] At the end of the incubation period, aliquots of the donor and receiver solutions were collected, and the fluorescence compounds (Aβ1-40Cy5 and LY) were measured with a spectrofluorimeter (Synergy H1). The radioactivity of [^3H]inulin was measured using a scintillation counter (Hidex 300 SL, Hidex, Turku, Finland). The permeability (apparent permeability coefficient, cm.sec^−1) of Aβ1-40-Cy5 or [^3H]-inulin was calculated according to the following equation: (1) Papp = (k.V(R))/(A.60) as previously described. k was the transport rate (min^−1) defined as the slope obtained by linear regression of the cumulative fraction absorbed (FAcum) as a function of time (min), V(R) was the volume in the receiver chamber (mL), and A was the area of the filter (cm^2). Determination of the cumulative fraction absorbed (amount permeated), FAcum versus time, FAcum was calculated from: (2) FAcum = ∑ (C(Ri))/(C(Di)), where C(Ri) was the receiver concentration at the end of the interval i and C(Di) was the donor concentration at the beginning of interval i. […]

[2] = test system: Aβ1–40Cy5 peptide transport across BLECs; assay: Aβ1–40Cy5 peptide transport across BLECs; type: cell-based, human; conditions: 48 h ratio treatment; 200 nM RAP in basolateral compartment (LRP1 inhibitor) or 0.5 µM elacridar in apical compartment (P-gp inhibitor); 10 nM Aβ1–40Cy5, 30 min, 37 °C
Description: Forty-eight hours after KB treatments, the apical-to-basolateral and the basolateral-to-apical transport of Aβ1-40 across BLECs was investigated as previously described (Briefly, for apical-to-basolateral studies, filters were transferred to new 12-well plates containing 1.5 mL of RH-HSA 0.1% (the receiver solution) per well. In the insert corresponding to the apical compartment, 0.5 mL of RH-HSA 0.1% supplemented with 10 nM Aβ1-40Cy5 peptide was added (the donor solution). For basolateral-to-apical studies, filters were transferred to 12-well plates containing 1.5 mL of RH-HSA 0.1% supplemented with 10 nM fluorescent Aβ1-40Cy5 (the donor solution). […] At the end of the incubation period, aliquots of the donor and receiver solutions were collected, and the fluorescence compounds (Aβ1-40Cy5 and LY) were measured with a spectrofluorimeter (Synergy H1). The radioactivity of [^3H]inulin was measured using a scintillation counter (Hidex 300 SL, Hidex, Turku, Finland). […] Determination of the cumulative fraction absorbed (amount permeated), FAcum versus time, FAcum was calculated from: (2) FAcum = ∑ (C(Ri))/(C(Di)), where C(Ri) was the receiver concentration at the end of the interval i and C(Di) was the donor concentration at the beginning of interval i. […] The apical-to-basolateral and the basolateral-to-apical Papp were determined by Equation (1) for each molecule. […]

BLECs = assay: Immunofluorescence of tight junction proteins ZO-1 and claudin-5; type: cell-based, human; conditions: 48 h treatment
Description: After 48 h of treatments with or without KBs, BLECs were fixed and permeabilized as described in Table 1. Then, a 30-min blocking with PBS-CMF (0.2 g·L^−1 KH2PO4 , 8.0 g·L^−1 NaCl, 2.87 g·L^−1 Na2HPO4-12H2O, and 0.2 g·L^−1 KCl) with 10% (v/v) normal goat serum (NGS) was performed. Then, cells were incubated for 60 min with the primary antibody in PBS-CMF supplemented with 2% NGS at room temperature (RT), against the target protein as described in Table 1.
After three washes in PBS-CMF supplemented with 2% NGS, the cells were incubated with secondary polyclonal antibody (goat anti-rabbit Alexa 568, A11036, Molecular Probes, Eugene, OR, USA) diluted 1:500 in PBS-CMF supplemented with 2% NGS in the dark for 30 min at RT. Hoechst 33358 was used for nuclei staining. After mounting with Mowiol (Sigma-Aldrich) containing 1,4-diazabicyclo [2.2.2]octane (Sigma-Aldrich), images were taken using a Leica microscope (DMRD; Leica Microsystems, Wetzlar, Germany) and processed using ImageJ32 software.

[3] = test system: human in vitro BBB model (BLECs); assay: βHB concentration in the compartments of the in vitro BBB model; type: in vitro ADME; conditions: 20 mM βHB added apically, 48 h
Description: (§1) During this time, the glucose and βHB concentrations were measured in both the apical compartment and the basolateral compartment. The Precision-Xtra meter (Abbott Labs, Abbott Park, IL, USA) with a glucose or β-ketone sticks was used. In these assays, the glucose and βHB concentrations measured by the sticks were representative of the glucose and βHB present in the culture medium. Data were expressed in mmol·L^−1 for βHB and in g·L^−1 for glucose. The βHB concentration within BLECs was measured at 48 h following the treatment. Briefly, after medium removal, BLECs were washed twice with RH buffer and lysed with RIPA lysis buffer (Millipore Corporation, Burlington, MA, USA). The βHB concentration in the BLECs was normalized by the protein amount using Bradford assay (Bio-rad, Munich, Germany). The amount of βHB into the supernatant was assayed using β-ketone sticks, as described above. The βHB concentration was verified in the culture medium without cells at 37 °C and 5% CO2 to ensure the stability of βHB.

[4] = Stability of βHB in culture medium; type: physicochemical; conditions: 37 °C, 5% CO2, over 48 h, β-ketone sticks
Description: as §1

GLUT1 = assay: Western blot of GLUT1 protein level in BLECs; type: cell-based, human; conditions: 48 h, 20 mM βHB or ratio, Western blot normalized to β-actin, at least three independent experiments
LRP1 = assay: Western blot of LRP1 protein level in BLECs; type: cell-based, human; conditions: 48 h, 20 mM βHB or ratio, Western blot normalized to β-actin, at least three independent experiments
PICALM = assay: Western blot of PICALM protein level in BLECs; type: cell-based, human; conditions: 48 h, 20 mM βHB or ratio, Western blot normalized to β-actin, at least three independent experiments
PC12 cells = PC12 cells exposed in 0–20 mM βHB; cited from earlier work
Description: For a few years now, there has been an increased focus on the role of the transport of Aβ peptides across the blood–brain barrier (BBB). It appears that increasing the clearance or reducing the entry of Aβ peptides in the brain could be a promising therapeutic approach for counteracting the pathogenic processes observed in AD [52]. In recent years, there has been mounting interest in the possible utilization of a ketogenic diet (KD) or ketone body (KB) supplementations in the treatment of AD [53, 54]. On the basis of KBs’ beneficial effects on the CNS, and the lack of publ ...

Molecule: CC(=O)CC(=O)O [AcAc, acetoacetate]
decrease in PeLY compared to the control (BLEC monolayer; 20 mM, 48 h treatment of BLECs, p-value ≤ 0.0001): 14.6%
increase of MCT1 protein level compared to the control (MCT1): 35.9%
decrease of apical-to-basolateral [3H]inulin transport ([1]; after 48 h 20 mM AcAc, scintillation counting, p-value = 0.0005): 12.9%

Molecule: COc1cc2c(cc1OC)CN(CCc1ccc(NC(=O)c3cccc4c(=O)c5cccc(OC)c5[nH]c34)cc1)CC2 [elacridar, Elacridar, reference compound]
effect on the increased basolateral-to-apical Aβ1–40Cy5 peptide transport after ratio KB treatment [2]: abolished
effect on basolateral-to-apical transport of [3H]inulin after ratio KB treatment [1]: not affected

Molecule: OC[C@@H](O)[C@@H](O)[C@H](O)[C@H](O)CO [mannitol]
increase in PeLY values compared to non-treated cells (BLEC monolayer; mannitol treatment of the human in vitro BBB model, p-value ≤ 0.0001): 620.6%
staining of tight junction proteins ZO-1 and claudin-5 (intercellular contacts) (BLECs): interruption in the staining for ZO-1 and claudin-5 protein

βHB concentration in the BLEC [3]: ~ 0.5 mM
βHB concentration in the apical compartment [3]: ~ 8.5 mM
βHB concentration in the basolateral compartment [3]: ~ 6.6 mM
initially added βHB not detectable ([3]; 37 °C, 5% CO2): 21.4%
βHB in BLECs, % of the total amount of βHB ([3]; 37 °C, 5% CO2, RIPA lysate, β-ketone sticks, mean of three independent experiments): 2.4%
βHB in the apical (luminal) compartment, % of the total amount of βHB ([3]; 37 °C, 5% CO2, β-ketone sticks (Precision-Xtra meter), mean of three independent experiments): 42.9%
βHB in the basolateral (abluminal) compartment, % of the total amount of βHB ([3]; 37 °C, 5% CO2, β-ketone sticks, mean of three independent experiments): 33.3%
stability of βHB in the culture medium [4]: stable
Molecule: CC(O)CC(=O)O (stereo not drawn) [βHB, Beta-hydroxybutyric acid]
increase of MCT1 protein level compared to the control (MCT1): 24.9%
increase of GLUT1 protein level compared to the control (GLUT1): 51.9%
upregulation of LRP1 protein level compared to the control (LRP1): 109.3%
increase of PICALM protein level compared to the control (PICALM): 39.1%
cell viability (PC12 cells): 95%

endothelial lucifer yellow permeability (PeLY), control conditions (BLEC monolayer; untreated BLECs, LY 50 µM in RH buffer, apical-to-basolateral, 1 h, fluorescence 432/538 nm, mean ± SEM, three independent experiments in triplicate): 0.92 ± 0.03 × 10^−3 cm∙min^−1
Molecule: Lucifer Yellow CH dilithium salt

B1: RAP: Receptor-associated protein, human, recombinant, E.coli; standard inhibitor for LRP1 (protein, UniProt P30533 35-357, looked up)
Alpha-2-macroglobulin …: YSREKNQPKPSPKRESGEEFRMEKLNQLWEKAQRLHLPPVRLAELHADLKIQERDELAWKKLKLDGLDEDGEKEARLIRNLNVILAKYGLDGKKDARQVTSNSLSGTQEDGLDDPRLEKLWHKAKTSGKFSGEELDKLWREFLHHKEKVHEYNVLLETLSRTEEIHENVISPSDLSDIKGSVLHSRHTELKEKLRSINQGLDRLRRVSHQGYSTEAEFEEPRVIDLWDLAQSANLTDKELEAFREELKHFEAKIEKHNHYQKQLEIAHEKLRHAESVGDGERVSRSREKHALLEGRTKELGYTVKKHLQDLSGRISRARHNEL
effect on the increased basolateral-to-apical Aβ1–40Cy5 peptide transport after ratio KB treatment [2]: abolished
effect on basolateral-to-apical transport of [3H]inulin after ratio KB treatment [1]: not affected
